The numbers were not newly measured in patent publication US20030129188A1, “Integrin targeting compounds” (The Scripps Research Institute, priority 2001, published 2003), which cites them from elsewhere.

The conditions of the data set: more potent than doxorubicin itself.

As for `COc1cccc2c1C(=O)c1c(O)c3c(c(O)c1C2=O)C[C@@](O)(C(=O)CO)C[C@@H]3O[C@H]1C[C@H](N2C=CCC2)[C@H](O)[C@H](C)O1` [2-pyrrolinodoxorubicin], the “potency relative to doxorubicin” value was 500-1000 times.
